Here are results for 9 compounds from US9120785B2, “Pyridyl aminopyridines as Syk inhibitors” (Merck Sharp & Dohme Corp., priority 2011, dated 2015).

In data set [1] the target is recombinant human GST-Syk (Homo sapiens (Human), UniProt P43405). As to the kind of experiment: Homogeneous Time-Resolved Fluorescence (HTRF) assay for the recombinant human Syk enzyme. The following applies: recombinant human GST-Syk 5 pM, ATP 25 μM. Type of data set: biochemical. In a few lines: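 GST-hSyk (5 pM final) preincubated 10 min at room temperature with inhibitor (0.1% DMSO) in 15 mM Tris-HCl pH 7.5, 0.01% Tween 20, 2 mM DTT. Reaction with 250 nM biotinylated peptide, 5 mM Mg, 25 μM ATP for 45 min, room temperature. Quenched with EDTA; Eu-anti-phosphotyrosine/SA-APC HTRF read after 30 min.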

For data set [2] the following is noted: phase II clinical trial, allergic rhinitis; cited from earlier work.
For data set [3] the following is noted: dosed intranasally, phase I/II study, allergic rhinitis; cited from earlier work.
[4] abbreviates: 10-dose titration, read-out: rhSyk (nM) IC50.
Where [5] appears, read: class symbols, read-out: rhSyk activity (IC50).

Where two headings read alike, the source gives them in different places.

As to `CC1(C)C[C@@H](C(C)(O)c2ncc(-c3cccc(Nc4cc(C(F)F)ccn4)n3)s2)CC[C@@H]1C(=O)O` (stereo partly drawn) [Example 14-50, (1S,4S)-4-{1-[5-(6-{[4-(difluoromethyl)pyridin-2-yl]amino}pyridin-2-yl)-1,3-thiazol-2-yl]-1-hydroxyethyl)-2,2-dimethylcyclohexanecarboxylic acid], the results for the IC50 in data set [1] (setting [4]) and in data set [1] (setting [5]) were 6 nM and at most 100 nM, respectively.
Turning to `Cc1cc(Nc2cc(C(F)(F)F)ccn2)nc(-c2cnc([C@@](C)(O)[C@H]3CNC(=O)C3)s2)c1` [Example 14-55, (4R)-4-{(1S)-1-hydroxy-1-[5-(4-methyl-6-{[4-(trifluoromethyl)pyridin-2-yl]amino}pyridin-2-yl)-1,3-thiazol-2-yl]ethyl}pyrrolidin-2-one], the IC50 (as a rule, the concentration at which inhibition is half-maximal) in data set [1] (setting [5]) was at most 100 nM.
As to `Cc1cc(Nc2cc(C(F)(F)F)ccn2)nc(-c2cnc([C@](C)(O)[C@H]3CNC(=O)C3)s2)c1` [Example 14-56, (4R)-4-{(1R)-1-hydroxy-1-[5-(4-methyl-6-{[4-(trifluoromethyl)pyridin-2-yl]amino}pyridin-2-yl)-1,3-thiazol-2-yl]ethyl}pyrrolidin-2-one], in data set [1] (setting [5]), the IC50 was at most 100 nM.
Same read-out and setting: in the case of `Cc1cc(Nc2cc(C(F)(F)F)ccn2)nc(-c2cnc(C(C)(O)C3CCC(C(=O)O)C(C)C3)s2)c1` (stereo not shown) [Example 15-14, 4-{1-hydroxy-1-[5-(4-methyl-6-{[4-(trifluoromethyl)pyridin-2-yl]amino}pyridin-2-yl)-1,3-thiazol-2-yl]ethyl}-2-methylcyclohexanecarboxylic acid] it was at most 100 nM; in that of `Cc1cc(Nc2cc(C(F)(F)F)ccn2)nc(-c2cnc(C(C)(O)C3CCC(C(=O)O)C(C)C3)s2)c1` (stereo not shown) [Example 15-15, 4-{1-hydroxy-1-[5-(4-methyl-6-{[4-(trifluoromethyl)pyridin-2-yl]amino}pyridin-2-yl)-1,3-thiazol-2-yl]ethyl}-2-methylcyclohexanecarboxylic acid], at most 100 nM.
On the same count and under the same terms, in the case of `Cc1cc(Nc2cc(C(F)(F)F)ccn2)nc(-c2cnc(C(C)(O)C3CCC(C(=O)O)C(C)C3)s2)c1` (stereo not shown) [Example 15-16, 4-{1-hydroxy-1-[5-(4-methyl-6-{[4-(trifluoromethyl)pyridin-2-yl]amino}pyridin-2-yl)-1,3-thiazol-2-yl]ethyl}-2-methylcyclohexanecarboxylic acid] it was at most 100 nM.
Still for that read-out and setting: in the case of `Cc1cc(Nc2cc(C(F)(F)F)ccn2)nc(-c2cnc(C(C)(O)C3CCC(C(=O)O)C(C)C3)s2)c1` (stereo not shown) [Example 15-17, 4-{1-hydroxy-1-[5-(4-methyl-6-{[4-(trifluoromethyl)pyridin-2-yl]amino}pyridin-2-yl)-1,3-thiazol-2-yl]ethyl}-2-methylcyclohexanecarboxylic acid] it was at most 100 nM.
On to `Oc1cccc(Nc2ncc(F)c(Nc3cccc(O)c3)n2)c1` [Example R112], for which the efficacy versus placebo result in data set [2] is “lack of efficacy versus placebo”. Moreover, in data set [3], the clinical safety entry is “safe across a range of indicators” and the “decrease in PGD2” value is given as “statistically significant decrease”.
For the compound “butyl trans-4-[1-hydroxy-1-(5-{6-[(4-methoxypyridin-2-yl)amino]-4-methylpyridin-2-yl}-1,3-thiazol-2-yl)ethyl]cyclohexanecarboxylate [Example 14-2]”, the IC50 in data set [1] (setting [4]) is 219 nM; in data set [1] (setting [5]), 100 to 1000 nM.
